Measurements published in patent US10308639B2, “Phosphatidylinositol 3-kinase inhibitors” (Gilead Sciences, Inc., priority 2014, dated 2019).

How the values were obtained:
Assay type in all cases: biochemical
[1] = biological target: T1, PI3Kγ (Homo sapiens, UniProt P48736); assay: TR-FRET enzymatic activity assay, PI3Kγ; settings: Table 2a; same assay; read-out: PI3Kγ IC50
T1 construct: made in house
Method in brief: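 Enzymatic activity against the PI3K isoforms was measured using a time-resolved fluorescence resonance energy transfer (TR-FRET) assay.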

[2] = biological target: T2, PI3Kδ (Homo sapiens, UniProt O00329); assay: TR-FRET enzymatic activity assay, PI3Kδ; settings: Table 2a; same assay
T2 construct: made in house

[3] = biological target: T3, PI3Kβ (Homo sapiens, UniProt P42338); assay: TR-FRET enzymatic activity assay, PI3Kβ; settings: Table 2a; same assay
T3 construct: made in house
T3 sequence (P42338 whole entry): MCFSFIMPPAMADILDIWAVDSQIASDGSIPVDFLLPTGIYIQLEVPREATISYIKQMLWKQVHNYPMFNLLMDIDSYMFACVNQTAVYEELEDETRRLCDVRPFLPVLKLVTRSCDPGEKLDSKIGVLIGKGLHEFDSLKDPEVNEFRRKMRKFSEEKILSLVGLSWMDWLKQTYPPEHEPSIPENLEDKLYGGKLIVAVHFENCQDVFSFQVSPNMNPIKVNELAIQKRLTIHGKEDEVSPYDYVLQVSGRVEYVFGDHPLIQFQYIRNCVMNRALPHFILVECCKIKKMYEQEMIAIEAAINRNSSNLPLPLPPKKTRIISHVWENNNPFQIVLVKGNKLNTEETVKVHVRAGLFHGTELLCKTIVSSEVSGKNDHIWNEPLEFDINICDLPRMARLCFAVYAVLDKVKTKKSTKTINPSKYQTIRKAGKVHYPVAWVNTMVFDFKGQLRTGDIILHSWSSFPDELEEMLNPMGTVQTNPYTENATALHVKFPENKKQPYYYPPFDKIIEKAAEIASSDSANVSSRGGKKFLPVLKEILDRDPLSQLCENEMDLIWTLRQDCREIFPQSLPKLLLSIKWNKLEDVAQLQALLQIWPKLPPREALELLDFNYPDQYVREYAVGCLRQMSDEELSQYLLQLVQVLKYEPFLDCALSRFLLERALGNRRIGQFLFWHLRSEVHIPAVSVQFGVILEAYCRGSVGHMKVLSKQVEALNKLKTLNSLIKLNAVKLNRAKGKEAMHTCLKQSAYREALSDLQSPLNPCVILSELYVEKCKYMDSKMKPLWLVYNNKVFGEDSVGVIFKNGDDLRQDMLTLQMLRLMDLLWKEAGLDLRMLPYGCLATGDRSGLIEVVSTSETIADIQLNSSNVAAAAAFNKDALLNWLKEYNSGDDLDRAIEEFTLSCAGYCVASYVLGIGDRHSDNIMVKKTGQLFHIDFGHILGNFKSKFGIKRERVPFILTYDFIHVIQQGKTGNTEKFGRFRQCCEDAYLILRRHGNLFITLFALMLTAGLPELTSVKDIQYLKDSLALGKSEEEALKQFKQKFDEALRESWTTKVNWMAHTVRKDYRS
T3 sequence (P27986 whole entry partner): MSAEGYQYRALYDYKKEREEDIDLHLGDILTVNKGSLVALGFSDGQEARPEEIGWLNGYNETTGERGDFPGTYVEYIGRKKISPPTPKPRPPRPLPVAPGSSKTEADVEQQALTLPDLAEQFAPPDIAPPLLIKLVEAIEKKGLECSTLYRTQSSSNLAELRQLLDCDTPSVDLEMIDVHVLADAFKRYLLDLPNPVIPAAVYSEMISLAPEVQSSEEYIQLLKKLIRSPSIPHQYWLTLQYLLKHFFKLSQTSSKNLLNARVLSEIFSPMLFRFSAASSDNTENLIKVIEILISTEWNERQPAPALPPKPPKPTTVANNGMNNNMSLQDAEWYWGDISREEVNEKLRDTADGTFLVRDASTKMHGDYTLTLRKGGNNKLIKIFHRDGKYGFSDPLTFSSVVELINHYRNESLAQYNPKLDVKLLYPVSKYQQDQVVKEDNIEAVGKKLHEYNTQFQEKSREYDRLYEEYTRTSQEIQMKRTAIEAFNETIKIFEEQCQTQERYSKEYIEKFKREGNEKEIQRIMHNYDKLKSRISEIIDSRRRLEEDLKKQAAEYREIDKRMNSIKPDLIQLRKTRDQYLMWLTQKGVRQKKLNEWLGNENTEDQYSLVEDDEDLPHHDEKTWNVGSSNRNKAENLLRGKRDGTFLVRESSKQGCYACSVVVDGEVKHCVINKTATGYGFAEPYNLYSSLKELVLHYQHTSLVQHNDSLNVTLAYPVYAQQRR

T1 sequence (P48736 whole entry): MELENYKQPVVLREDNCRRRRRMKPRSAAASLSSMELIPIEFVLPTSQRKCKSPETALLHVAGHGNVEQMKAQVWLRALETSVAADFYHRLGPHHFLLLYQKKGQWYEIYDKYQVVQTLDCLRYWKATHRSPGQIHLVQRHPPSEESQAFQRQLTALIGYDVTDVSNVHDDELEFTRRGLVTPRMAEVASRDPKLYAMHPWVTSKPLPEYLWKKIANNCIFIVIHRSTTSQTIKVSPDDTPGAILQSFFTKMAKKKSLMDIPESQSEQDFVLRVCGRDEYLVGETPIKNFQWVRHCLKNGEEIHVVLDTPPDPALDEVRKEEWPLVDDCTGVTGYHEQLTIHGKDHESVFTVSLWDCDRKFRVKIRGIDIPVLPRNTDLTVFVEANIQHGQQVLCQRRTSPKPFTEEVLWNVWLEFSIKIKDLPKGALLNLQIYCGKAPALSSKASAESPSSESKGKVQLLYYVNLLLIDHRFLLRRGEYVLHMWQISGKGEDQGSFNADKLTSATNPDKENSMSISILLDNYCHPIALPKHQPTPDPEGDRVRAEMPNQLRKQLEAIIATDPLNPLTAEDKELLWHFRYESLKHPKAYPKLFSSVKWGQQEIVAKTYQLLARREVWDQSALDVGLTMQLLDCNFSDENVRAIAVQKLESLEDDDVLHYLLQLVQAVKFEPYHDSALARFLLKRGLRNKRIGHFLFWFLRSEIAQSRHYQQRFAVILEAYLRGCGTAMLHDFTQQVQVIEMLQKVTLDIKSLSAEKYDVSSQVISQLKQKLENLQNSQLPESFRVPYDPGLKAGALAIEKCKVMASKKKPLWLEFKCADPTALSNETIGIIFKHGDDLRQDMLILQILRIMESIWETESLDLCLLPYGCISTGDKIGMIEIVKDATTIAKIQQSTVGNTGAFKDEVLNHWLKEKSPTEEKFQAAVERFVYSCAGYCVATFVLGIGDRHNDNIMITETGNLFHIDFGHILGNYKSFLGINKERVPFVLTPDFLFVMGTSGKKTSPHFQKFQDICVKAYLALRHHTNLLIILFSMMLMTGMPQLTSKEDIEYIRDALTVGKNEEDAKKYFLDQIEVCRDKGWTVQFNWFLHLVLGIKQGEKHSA
T2 sequence (O00329 whole entry): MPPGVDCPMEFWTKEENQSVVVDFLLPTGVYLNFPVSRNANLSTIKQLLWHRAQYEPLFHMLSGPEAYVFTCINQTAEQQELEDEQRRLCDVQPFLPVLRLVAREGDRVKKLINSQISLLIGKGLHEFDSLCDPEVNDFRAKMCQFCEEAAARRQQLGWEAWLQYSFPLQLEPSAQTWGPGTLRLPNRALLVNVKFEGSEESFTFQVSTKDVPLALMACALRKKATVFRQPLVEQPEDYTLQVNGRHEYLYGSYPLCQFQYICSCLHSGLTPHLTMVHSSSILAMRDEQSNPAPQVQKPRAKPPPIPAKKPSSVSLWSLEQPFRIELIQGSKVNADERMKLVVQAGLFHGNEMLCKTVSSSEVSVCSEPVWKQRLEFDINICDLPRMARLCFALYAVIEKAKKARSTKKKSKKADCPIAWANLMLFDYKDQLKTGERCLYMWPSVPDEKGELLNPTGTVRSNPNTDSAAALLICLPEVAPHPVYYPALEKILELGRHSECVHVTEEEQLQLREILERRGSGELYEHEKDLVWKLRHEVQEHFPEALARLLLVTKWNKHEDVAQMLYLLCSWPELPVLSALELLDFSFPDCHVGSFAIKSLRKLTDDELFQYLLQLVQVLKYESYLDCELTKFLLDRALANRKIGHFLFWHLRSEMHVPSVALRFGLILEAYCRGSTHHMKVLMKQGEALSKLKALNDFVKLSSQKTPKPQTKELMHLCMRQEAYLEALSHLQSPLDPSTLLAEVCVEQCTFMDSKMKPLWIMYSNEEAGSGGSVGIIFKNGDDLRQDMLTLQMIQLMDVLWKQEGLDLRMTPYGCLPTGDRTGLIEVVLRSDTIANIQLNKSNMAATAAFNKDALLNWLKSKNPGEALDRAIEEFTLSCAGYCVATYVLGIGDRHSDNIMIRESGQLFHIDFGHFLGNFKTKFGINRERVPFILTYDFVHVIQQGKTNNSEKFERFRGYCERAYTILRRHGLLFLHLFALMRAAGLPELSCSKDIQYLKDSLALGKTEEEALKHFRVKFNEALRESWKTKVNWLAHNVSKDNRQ
T2 sequence (P27986 whole entry partner): as the sequence (P27986 whole entry partner) above

Compound	IC50 [1]	IC50 [2]	IC50 [3]
C[C@H](Nc1nc(N)nc(N)c1C#N)c1nc2c(F)cc(F)cc2c(=O)n1-c1cc[nH]n1 [Compound 169, (S)-2,4-diamino-6-((1-(6,8-difluoro-4-oxo-3-(1H-pyrazol-3-yl)-3,4-dihydroquinazolin-2-yl)ethyl)amino)pyrimidine-5-carbonitrile]	0.26 µM	0.0006 µM	0.001 µM
N#Cc1c(N)nc(N)nc1N[C@H](c1nc2c(F)cc(F)cc2c(=O)n1-c1cc[nH]n1)C1CC1 [Compound 170, (S)-2,4-diamino-6-((cyclopropyl(6,8-difluoro-4-oxo-3-(1H-pyrazol-3-yl)-3,4-dihydroquinazolin-2-yl)methyl)amino)pyrimidine-5-carbonitrile]	0.436 µM	0.001 µM	0.003 µM
C[C@@H](Nc1nc(N)nc(N)c1C#N)c1nc2c(Cl)cc(F)cc2c(=O)n1-c1cc[nH]n1 [Compound 175, (R)-2,4-diamino-6-((1-(8-chloro-6-fluoro-4-oxo-3-(1H-pyrazol-3-yl)-3,4-dihydroquinazolin-2-yl)ethyl)amino)pyrimidine-5-carbonitrile]	> 10 µM	0.013 µM	0.019 µM
C[C@H](Nc1nc(N)nc(C(F)F)c1C#N)c1nc2cccc(C(F)F)c2c(=O)n1-c1cc[nH]n1 [Compound 176, (S)-2-amino-4-(difluoromethyl)-6-((1-(5-(difluoromethyl)-4-oxo-3-(1H-pyrazol-3-yl)-3,4-dihydroquinazolin-2-yl)ethyl)amino)pyrimidine-5-carbonitrile]	2 µM	0.018 µM	0.026 µM
N#Cc1c(N[C@H](c2nc3cccc(C(F)F)c3c(=O)n2-c2cc[nH]n2)C2CC2)nc(N)nc1C(F)F [Compound 177, (S)-2-amino-4-((cyclopropyl(5-(difluoromethyl)-4-oxo-3-(1H-pyrazol-3-yl)-3,4-dihydroquinazolin-2-yl)methyl)amino)-6-(difluoromethyl)pyrimidine-5-carbonitrile]	2.3 µM	0.026 µM	0.029 µM
C[C@H](Nc1nc(N)nc(C(F)F)c1C#N)c1nc2cccc(C(F)(F)F)c2c(=O)n1-c1cc[nH]n1 [Compound 178, (S)-2-amino-4-(difluoromethyl)-6-((1-(4-oxo-3-(1H-pyrazol-3-yl)-5-(trifluoromethyl)-3,4-dihydroquinazolin-2-yl)ethyl)amino)pyrimidine-5-carbonitrile]	2.24 µM	0.023 µM	0.034 µM
C[C@H](Nc1nc(N)nc(C(F)F)c1C#N)c1nc2cccc(C(F)F)c2c(=O)n1-c1cn[nH]c1 [Compound 179, (S)-2-amino-4-(difluoromethyl)-6-((1-(5-(difluoromethyl)-4-oxo-3-(1H-pyrazol-4-yl)-3,4-dihydroquinazolin-2-yl)ethyl)amino)pyrimidine-5-carbonitrile]	0.95 µM	0.027 µM	0.078 µM
C[C@@H](Nc1nc(N)nc(N)c1Cl)c1nc2cccc(C(F)F)c2c(=O)n1-c1cc[nH]n1 [Compound 181, (R)-2-(1-((2,6-diamino-5-chloropyrimidin-4-yl)amino)ethyl)-5-(difluoromethyl)-3-(1H-pyrazol-3-yl)quinazolin-4(3H)-one]	> 10 µM	0.077 µM	0.065 µM
C[C@@H](Nc1nc(N)nc(N)c1C#N)c1nc2cccc(C(F)F)c2c(=O)n1-c1cc[nH]n1 [Compound 182, (R)-2,4-diamino-6-((1-(5-(difluoromethyl)-4-oxo-3-(1H-pyrazol-3-yl)-3,4-dihydroquinazolin-2-yl)ethyl)amino)pyrimidine-5-carbonitrile]	7.3 µM	0.008 µM	0.018 µM
C[C@H](Nc1nc(N)nc(C(F)F)c1C#N)c1nc2c(Cl)cc(F)cc2c(=O)n1-c1cn[nH]c1 [Compound 183, (S)-2-amino-4-((1-(8-chloro-6-fluoro-4-oxo-3-(1H-pyrazol-4-yl)-3,4-dihydroquinazolin-2-yl)ethyl)amino)-6-(difluoromethyl)pyrimidine-5-carbonitrile]	0.84 µM	0.009 µM	0.025 µM
N#Cc1c(N[C@H](c2nc3c(Cl)cc(F)cc3c(=O)n2-c2cn[nH]c2)C2CC2)nc(N)nc1C(F)F [Compound 184, (S)-2-amino-4-(((8-chloro-6-fluoro-4-oxo 3-(1H-pyrazol-4-yl)-3,4-dihydroquinazolin-2-yl)(cyclopropyl)methyl)amino)-6-(difluoromethyl)pyrimidine-5-carbonitrile]	1.5 µM	0.009 µM	0.008 µM
C[C@H](Nc1nc(N)nc(C(F)F)c1C#N)c1nc2c(F)ccc(Cl)c2c(=O)n1-c1cc[nH]n1 [Compound 185, (S)-2-amino-4-((1-(5-chloro-8-fluoro-4-oxo-3-(1H-pyrazol-3-yl)-3,4-dihydroquinazolin-2-yl)ethyl)amino)-6-(difluoromethyl)pyrimidine-5-carbonitrile]	1.3 µM	0.004 µM	0.006 µM
C[C@H](Nc1nc(N)nc(C(F)F)c1C#N)c1nc2c(Cl)cccc2c(=O)n1-c1cc[nH]n1 [Compound 188, (S)-2-amino-4-((1-(8-chloro-4-oxo-3-(1H-pyrazol-3-yl)-3,4-dihydroquinazolin-2-yl)ethyl)amino)-6-(difluoromethyl)pyrimidine-5-carbonitrile]	4 µM	0.004 µM	0.009 µM
N#Cc1c(C(F)F)nc(N)nc1N1CCC[C@H]1c1nc2cccc(Cl)c2c(=O)n1-c1cc[nH]n1 [Compound 189, (S)-2-amino-4-(2-(5-chloro-4-oxo-3-(1H-pyrazol-3-yl)-3,4-dihydroquinazolin-2-yl)pyrrolidin-1-yl)-6-(difluoromethyl)pyrimidine-5-carbonitrile]	> 10 µM	0.13 µM	2 µM
C[C@H](Nc1nc(N)nc(C(F)F)c1C#N)c1nc2c(Cl)ccc(Cl)c2c(=O)n1-c1cc[nH]n1 [Compound 190, (S)-2-amino-4-((1-(5,8-dichloro-4-oxo-3-(1H-pyrazol-3-yl)-3,4-dihydroquinazolin-2-yl)ethyl)amino)-6-(difluoromethyl)pyrimidine-5-carbonitrile]	9.9 µM	0.008 µM	0.031 µM
C[C@H](Nc1nc(N)nc(C(F)F)c1C#N)c1nc2c(F)ccc(F)c2c(=O)n1-c1cc[nH]n1 [Compound 192, (S)-2-amino-4-((1-(5,8-difluoro-4-oxo-3-(1H-pyrazol-3-yl)-3,4-dihydroquinazolin-2-yl)ethyl)amino)-6-(difluoromethyl)pyrimidine-5-carbonitrile]	4.7 µM	0.021 µM	0.062 µM
N#Cc1c(N[C@H](c2nc3c(F)ccc(Cl)c3c(=O)n2-c2cc[nH]n2)C2CC2)nc(N)nc1C(F)F [Compound 194, (S)-2-amino-4-(((5-chloro-8-fluoro-4-oxo-3-(1H-pyrazol-3-yl)-3,4-dihydroquinazolin-2-yl)(cyclopropyl)methyl)amino)-6-(difluoromethyl)pyrimidine-5-carbonitrile]	2.2 µM	0.02 µM	0.023 µM
N#Cc1c(N[C@H](c2nc3c(F)cc(F)cc3c(=O)n2-c2cc[nH]n2)C2CC2)nc(N)nc1C(F)F [Compound 195, (S)-2-amino-4-((cyclopropyl(6,8-difluoro-4-oxo-3-(1H-pyrazol-3-yl)-3,4-dihydroquinazolin-2-yl)methyl)amino)-6-(difluoromethyl)pyrimidine-5-carbonitrile]	3.8 µM	0.024 µM	0.042 µM
N#Cc1c(N[C@H](c2nc3c(Cl)cccc3c(=O)n2-c2cc[nH]n2)C2CC2)nc(N)nc1C(F)F [Compound 196, (S)-2-amino-4-(((8-chloro-4-oxo-3-(1H-pyrazol-3-yl)-3,4-dihydroquinazolin-2-yl)(cyclopropyl)methyl)amino)-6-(difluoromethyl)pyrimidine-5-carbonitrile]	6.9 µM	0.019 µM	0.019 µM
C[C@H](Nc1nc(C(F)F)nc(N)c1C#N)c1nc2cccc(Cl)c2c(=O)n1-c1cc[nH]n1 [Compound 197, (S)-4-amino-6-((1-(5-chloro-4-oxo-3-(1H-pyrazol-3-yl)-3,4-dihydroquinazolin-2-yl)ethyl)amino)-2-(difluoromethyl)pyrimidine-5-carbonitrile]	> 10 µM	0.54 µM	0.7 µM
C[C@H](Nc1nc(C(F)F)nc(N)c1C#N)c1nc2c(Cl)cc(F)cc2c(=O)n1-c1cc[nH]n1 [Compound 198, (S)-4-amino-6-((1-(8-chloro-6-fluoro-4-oxo-3-(1H-pyrazol-3-yl)-3,4-dihydroquinazolin-2-yl)ethyl)amino)-2-(difluoromethyl)pyrimidine-5-carbonitrile]	> 10 µM	0.83 µM	0.58 µM
C[C@H](Nc1nc(N)nc(N)c1Cl)c1nc2cccc(Cl)c2c(=O)n1-c1cc(N)[nH]n1 [Compound 199, (S)-3-(5-amino-1H-pyrazol-3-yl)-5-chloro-2-(1-((2,6-diamino-5-chloropyrimidin-4-yl)amino)ethyl)quinazolin-4(3H)-one]	5.4 µM	0.016 µM	0.007 µM
C[C@H](Nc1nc(N)nc(N)c1Cl)c1nc2c(C(F)F)cccc2c(=O)n1-c1cc[nH]n1 [Compound 200, (S)-2-(1-((2,6-diamino-5-chloropyrimidin-4-yl)amino)ethyl)-8-(difluoromethyl)-3-(1H-pyrazol-3-yl)quinazolin-4(3H)-one]	> 10 µM	0.16 µM	0.28 µM
C[C@H](Nc1nc(N)nc(N)c1C(F)(F)F)c1nc2cccc(Cl)c2c(=O)n1-c1cc[nH]n1 [Compound 201, (S)-5-chloro-2-(1-((2,6-diamino-5-(trifluoromethyl)pyrimidin-4-yl)amino)ethyl)-3-(1H-pyrazol-3-yl)quinazolin-4(3H)-one]	1 µM	0.003 µM	0.003 µM
